Data as given in patent US20130064712A1, “Composite comprising at least one type of perfluoroalkyl-perfluoro-phthalocyanine” (priority 2009, published 2013).

Tests used:
Jurkat cells = test: Accumulation of free F64PcZn in Jurkat cells; format: cell-based, human; conditions: free F64PcZn incubated with the cell suspensions
Source text: If the composite is used also on human skin there is a probability of PS loss by the photoactive foil. In order to protect the human body against undesired phototoxic effects it is important to make sure that the free molecules are not able to enter human cells.
Laser Phys. 13:22-29 b) M. Regehly , K. Greish, F. Rancan, H. Maeda, B. Röder: Water-soluble polymer conjugates of ZnPP for photodynamic therapy, Bioconjugate Chemistry, 18 (2007) 494-499. c) K. Chen, A. Preuβ, S. Hackbarth, M. Wacker, K. Langer, B. Röder: Novel photosensitizer-protein nanoparticles for Photodynamic Therapy: Photophysical characterization and in vitro investigations, J. Photochem. Photobiol.: B, in press May 2009). It is important to mention that phthalocyanines also belong to the class of tetrapyroles and thus the above comparison is meaningful. Thus, incubating the cell suspensions according to the procedure described in a) Paul A, Hackbarth S, Mölich A, Seifert M, Röder B (2003) Comparative Study on the Photosensitization of Jurkat Cells in vitro by Pheophorbide-a and a Pheophorbide-a Diaminobutane polypropylene-imine Dendrimer Complex. Laser Phys. […]

[1] = Singlet oxygen quantum yield; format: physicochemical

Substance: 1, 4, 8, 11, 15, 18, 22, 25-octafluoro-2, 3, 9, 10, 16, 17, 23, 24-octa-perfluoro-isopropyl-phthalocyanine [F64PcZn]
- accumulation of the dye inside the cells (Jurkat cells): undetectable accumulation
- singlet oxygen quantum yield [1]: around 56%
